Data: patent publication US20240199605A1, “SMALL MOLECULAR INHIBITORS OF NF-kB INDUCING KINASE” (Janssen Pharmaceutica NV, priority 2019, published 2024)

Tests used:
[1] = biological target: recombinant human NF-kappaB-inducing kinase (NIK/MAP3K14) (Homo sapiens (Human), UniProt Q99558); experiment: Inhibition of auto-phosphorylation of recombinant human NIK/MAP3K14 (AlphaScreen); type: biochemical; details: NIK auto-phosphorylation, 5 μM ATP, 1 nM NIK, 2 h at 25° C.; average of values
Protocol: Inhibition of auto-phosphorylation of recombinant human NF-kappaB-inducing kinase (NIK/MAP3K14) activity (AlphaScreen®)
NIK/MAP3K14 auto-phosphorylation activity was measured using the AlphaScreen® (αscreen) format (Perkin Elmer). All compounds tested were dissolved in dimethyl sulfoxide (DMSO) and further dilutions were made in assay buffer. The final DMSO concentration was 0.7% (v/v) in assays. The assay buffer was 50 mM Tris pH 7.5 containing 1 mM EGTA (ethylene glycol tetraacetic acid), 1 mM DTT (dithiothreitol), 0.1 mM Na3VO4, 5 mM MgCl2, and 0.01% Tween® 20. The assays were carried out in 384 well Proxiplates (Perkin Elmer). The incubations consisted of the compound, 5 μM Adenosine-5′-triphosphate (ATP), and 1 nM NIK/MAP3K14. Incubations were initiated by the addition of GST-tagged NIK/MAP3K14 enzyme, carried out for 2 h at 25° C. and terminated by addition of stop buffer containing anti-phospho-IKK Ser176/180 antibody. Protein A Acceptor and Glutathione-Donor beads were added before reading using an EnVision® Multilabel Plate Reader (Perkin Elmer). […] IC50's were determined by fitting a sigmoidal curve to % inhibition of control versus Log10 compound concentration.

[2] = system: p-IKKα levels in L363 (NIK translocated multiple myeloma) cells; experiment: Effect of compounds on p-IKKα levels in L363 cells (AlphaLISA SureFire Ultra); type: cell-based, human; details: Homo sapiens, L-363, 6 h, BAFF stimulated, MG132, 6 h, average of values, read-out: Assay 2 IC50
Protocol: Effect of Compounds on p-IKKα Levels in L363 (NIK Translocated Multiple Myeloma) Cells
All compounds tested were dissolved and serially diluted in DMSO, 1:3 dilution for 11 points in an Echo compatible plate. 100% DMSO was added to columns 12 and 24 of the plate to serve as high and low signal controls. This compound plate was used to spot 20 nL of compound or DMSO into a Greiner 384 well TC plate (781080). The final DMSO concentration was 0.3% (v/v) in cell assays. Human L363 cells (ATCC) were cultured in RPM11640 medium supplemented with GlutaMax, non-essential amino acids, sodium pyruvate and 10% fetal bovine serum. Cells were routinely maintained at densities of […] at 37° C. in a humidified 5% CO2 atmosphere incubator. Cells were passaged twice a week splitting back to obtain the low density. The day before the assay, cells were washed twice in HBSS (Hank's Balanced Salt Solution), resuspended in Dulbecco's Modified Eagle Medium (DMEM)+0.5% IgG and protease free BSA (Jackson Immuno Research Laboratories), +/−250 ng/ml recombinant human B-cell activating factor (BAFF/BLyS/TNFSF13B) and incubated overnight at 37° C. in a humidified 5% CO2 atmosphere (bulk stimulation with or without BAFF). The next day, the cell concentration was adjusted to 1×10^7 cells/ml in DMEM+/−250 ng/ml BAFF+/−10 μM MG132 and plated at 10 μl/well into compound or DMSO spotted 384 well TC plates. Seeded cells were incubated at 37° C. in a humidified 5% CO2 atmosphere for 6 h. After 6 h, the plates were removed from the incubator and cell lysis was achieved by the addition of 2.5 μl 5× lysis buffer containing protease and phosphatase inhibitors, followed by shaking on a plate shaker at room temperature for 15 min. At the end of this incubation, lysed cells were sequentially treated and incubated with acceptor and donor bead mixes according to the manufacturer's protocol for a 1 plate/2-incubation suspension cell assay (AlphaLISA SureFire Ultra p-IKKa (Ser 176/180) Assay Kit (Perkin Elmer). Plates were read using an EnVision® Multilabel Plate Reader (Perkin Elmer). Within an experiment, a concentration response curve for each compound was run in duplicate. The signal obtained in the test wells was normalized using high signal (BAFF stimulated cells, DMSO, MG132) and low signal (unstimulated cells, DMSO) controls. To determine the IC50, a sigmoidal curve was fitted to the plot of % inhibition versus Log10 compound concentration.

recombinant human NF-kappaB-inducing kinase (NIK/MAP3K14), sequence (Q99558 whole entry): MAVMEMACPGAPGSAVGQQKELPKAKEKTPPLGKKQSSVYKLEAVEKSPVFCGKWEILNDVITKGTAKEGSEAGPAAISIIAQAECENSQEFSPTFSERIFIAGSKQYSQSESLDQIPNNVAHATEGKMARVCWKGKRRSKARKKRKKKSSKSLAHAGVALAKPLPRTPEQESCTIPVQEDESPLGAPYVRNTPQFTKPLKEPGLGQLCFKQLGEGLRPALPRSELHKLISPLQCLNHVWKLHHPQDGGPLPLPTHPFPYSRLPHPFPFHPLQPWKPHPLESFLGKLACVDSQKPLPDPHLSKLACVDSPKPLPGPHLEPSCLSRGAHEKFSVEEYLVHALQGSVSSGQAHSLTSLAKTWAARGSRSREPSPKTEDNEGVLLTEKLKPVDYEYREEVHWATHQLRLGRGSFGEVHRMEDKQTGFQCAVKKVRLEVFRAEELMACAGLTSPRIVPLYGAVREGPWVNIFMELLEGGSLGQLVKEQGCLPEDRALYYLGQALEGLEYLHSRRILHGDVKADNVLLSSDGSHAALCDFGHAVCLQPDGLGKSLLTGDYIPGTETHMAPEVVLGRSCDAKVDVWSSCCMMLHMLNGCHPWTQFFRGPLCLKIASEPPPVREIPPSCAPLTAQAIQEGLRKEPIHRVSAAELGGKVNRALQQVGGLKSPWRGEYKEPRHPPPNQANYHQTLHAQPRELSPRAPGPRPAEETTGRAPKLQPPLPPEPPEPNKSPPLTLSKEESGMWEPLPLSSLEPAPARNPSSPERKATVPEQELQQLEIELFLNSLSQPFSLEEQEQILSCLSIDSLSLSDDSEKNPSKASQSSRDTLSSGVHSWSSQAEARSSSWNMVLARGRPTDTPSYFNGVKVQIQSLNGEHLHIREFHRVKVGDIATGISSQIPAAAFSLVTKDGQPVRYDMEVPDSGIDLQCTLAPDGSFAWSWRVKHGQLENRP

IC50 [1]	IC50 [2]	Compound
1930 nM	> 5000 nM	Cc1nc(N)c2nc(-c3cccc(C#C[C@@](C)(O)c4cnc(C)s4)c3)ccc2n1 [Example 158, (R)-4-(3-(4-Amino-2-methylpyrido[3,2-d]pyrimidin-6-yl)phenyl)-2-(2-methylthiazol-5-yl)but-3-yn-2-ol]
2 nM	49 nM	COc1ccc(C#C[C@]2(O)CCN(C)C2=O)cc1-c1ncc2ccnc(N)c2n1 [Example 53, (R)-3-((3-(8-Aminopyrido[3,4-d]pyrimidin-2-yl)-4-methoxyphenyl)ethynyl)-3-hydroxy-1-methylpyrrolidin-2-one]
390 nM	2460 nM	Cc1nc(N)c2nc(-c3cccc(C#C[C@]4(O)C(=O)N(C)C[C@H]4C)c3)ccc2n1 (stereo in doubt) [Example 294, (3S,4R*)-3-((3-(4-Amino-2-methylpyrido[3,2-d]pyrimidin-6-yl)phenyl)ethynyl)-3-hydroxy-1,4-dimethylpyrrolidin-2-one]
0.6 nM	12 nM	Cc1nc(N)c2nc(-c3cccc(C#C[C@]4(O)CCN(C)C4=O)c3)ccc2n1 [Example 6, (R)-3-((3-(4-Amino-2-methylpyrido[3,2-d]pyrimidin-6-yl)phenyl)ethynyl)-3-hydroxy-1-methylpyrrolidin-2-one]
≤ 0.5 nM	17 nM	[2H]c1nc(N)c2nc(-c3cc(C#C[C@]4(O)CCN(C)C4=O)ccc3C)ccc2n1 [Example 149, (R)-3-((3-(4-Aminopyrido[3,2-d]pyrimidin-6-yl-2-d)-4-methylphenyl)ethynyl)-3-hydroxy-1-methylpyrrolidin-2-one]
≤ 0.5 nM	52 nM	Cc1cc([C@](C)(O)C#Cc2cccc(-c3ncc4ccnc(N)c4n3)c2)no1 [Example 34, (R)-4-[3-(8-Aminopyrido[3,4-d]pyrimidin-2-yl)phenyl]-2-(5-methylisoxazol-3-yl)but-3-yn-2-ol]
250 nM	> 5000 nM	CN1CC[C@@](O)(C#Cc2cccc(N3CCCc4ncnc(N)c4C3)c2)C1=O [Example 224, (R)-3-((3-(4-Amino-5,7,8,9-tetrahydro-6H-pyrimido[5,4-c]azepin-6-yl)phenyl)ethynyl)-3-hydroxy-1-methylpyrrolidin-2-one]
320 nM	> 5000 nM	CN1CC[C@@](O)(C#Cc2cccc(-c3nc4ncnc(N)c4s3)c2)C1=O [Example 214, (R)-3-((3-(7-Aminothiazolo[4,5-d]pyrimidin-2-yl)phenyl)ethynyl)-3-hydroxy-1-methylpyrrolidin-2-one]
6.3 nM	380 nM	Cc1nc(N)c2nc(-c3cccc(C#C[C@@](C)(O)c4ncccn4)c3)ccc2n1 [Example 197, (R)-4-[3-(4-Amino-2-methyl-pyrido[3,2-d]pyrimidin-6-yl)phenyl]-2-pyrimidin-2-yl-but-3-yn-2-ol]

The next lines start with the molecule.

Compound	IC50 [1]	IC50 [2]
Cc1cc(-c2cccc(C#C[C@]3(O)CCN(C)C3=O)c2)nc2c(N)ncnc12 [Example 28, (R)-3-((3-(4-Amino-8-methylpyrido[3,2-d]pyrimidin-6-yl)phenyl)ethynyl)-3-hydroxy-1-methylpyrrolidin-2-one]	≤ 0.5 nM	0.7 nM
Cc1ccc(C#C[C@]2(O)CCN(C)C2=O)cc1-c1nc2c(N)ncnc2s1 [Example 10, (R)-3-((3-(7-Aminothiazolo[5,4-d]pyrimidin-2-yl)-4-methylphenyl)ethynyl)-3-hydroxy-1-methylpyrrolidin-2-one]	≤ 0.5 nM	8.1 nM
Cc1cc(C#C[C@]2(O)CCN(C)C2=O)cc(-c2ncc3ccnc(N)c3n2)c1 [Example 42, (R)-3-((3-(8-Aminopyrido[3,4-d]pyrimidin-2-yl)-5-methylphenyl)ethynyl)-3-hydroxy-1-methylpyrrolidin-2-one]	1.3 nM	29 nM
CN1CC[C@@](O)(C#Cc2cccc(-c3cc(OC4CC4)c4ncnc(N)c4n3)c2)C1=O [Example 304, (R)-3-[2-[3-[4-Amino-8-(cyclopropoxy)pyrido[3,2-d]pyrimidin-6-yl]phenyl]ethynyl]-3-hydroxy-1-methyl-pyrrolidin-2-one]	0.6 nM	15 nM
CC(C)Cc1cnc(N)c2nc(-c3cccc(C#C[C@]4(O)CCN(C)C4=O)c3)ncc12 [Example 130, (R)-3-((3-(8-Amino-5-isobutylpyrido[3,4-d]pyrimidin-2-yl)phenyl)ethynyl)-3-hydroxy-1-methylpyrrolidin-2-one]	0.7 nM	58 nM
CN1CC[C@@](O)(C#Cc2cccc(-c3nc(N(C)C)c4ccnc(N)c4n3)c2)C1=O [Example 58, (R)-3-((3-(8-Amino-4-(dimethylamino)pyrido[3,4-d]pyrimidin-2-yl)phenyl)ethynyl)-3-hydroxy-1-methylpyrrolidin-2-one]	0.7 nM	15 nM
CN1CC[C@@](O)(C#Cc2cccc(N3CCc4ccnc(N)c4C3)c2)C1=O [Example 20, (R)-3-((3-(8-Amino-3,4-dihydro-2,7-naphthyridin-2(1H)-yl)phenyl)ethynyl)-3-hydroxy-1-methylpyrrolidin-2-one]	1.2 nM	55 nM
Cc1nc(N)c2nc(-c3cccc(C#C[C@@](C)(O)c4cnccn4)c3)ccc2n1 [Example 200, (R)-4-[3-(4-Amino-2-methyl-pyrido[3,2-d]pyrimidin-6-yl)phenyl]-2-pyrazin-2-yl-but-3-yn-2-ol]	29 nM	3190 nM
Cc1nc(-c2cccc(C#C[C@@](C)(O)c3nccs3)c2)nc2c(N)nccc12 [Example 48, (R)-4-(3-(8-Amino-4-methylpyrido[3,4-d]pyrimidin-2-yl)phenyl)-2-(thiazol-2-yl)but-3-yn-2-ol]	≤ 0.5 nM	16 nM
Cc1ccc(C#C[C@@]2(O)CCN(C)C2=O)cc1-c1ccc2ncnc(N)c2n1 [Example 260, (S)-3-((3-(4-Aminopyrido[3,2-d]pyrimidin-6-yl)-4-methylphenyl)ethynyl)-3-hydroxy-1-methylpyrrolidin-2-one]	110 nM	2740 nM
Cc1nnc([C@](C)(O)C#Cc2cccc(-c3ccc4ncnc(N)c4c3)c2)o1 [Example 106, (R)-4-[3-(4-Aminoquinazolin-6-yl)phenyl]-2-(5-methyl-1,3,4-oxadiazol-2-yl)but-3-yn-2-ol]	14 nM	1450 nM
Cc1ccc(C#C[C@]2(O)CCc3cccnc32)cc1-c1ccc2ccnc(N)c2c1 [Example 80, (R)-7-[2-[3-(1-Amino-7-isoquinolyl)-4-methyl-phenyl]ethynyl]-5,6-dihydrocyclopenta[b]pyridin-7-ol]	28 nM	4000 nM
[2H]C([2H])([2H])N1CCC(O)(C#Cc2cccc(-c3ncc4ccnc(N)c4n3)c2)C1=O (stereo in doubt) [Example 66, (R)-3-[2-[3-(8-Aminopyrido[3,4-d]pyrimidin-2-yl)phenyl]ethynyl]-3-hydroxy-1-(trideuteriomethyl)pyrrolidin-2-one]	≤ 0.5 nM	4.5 nM
[2H]c1nc(N)c2nc(-c3cccc(C#C[C@]4(O)CCN(C)C4=O)c3)cc(C(C)C)c2n1 [Example 283, (R)-3-((3-(4-Amino-8-isopropylpyrido[3,2-d]pyrimidin-6-yl-2-d)phenyl)ethynyl)-3-hydroxy-1-methylpyrrolidin-2-one]	0.6 nM	1.4 nM
Cc1ccc(C#C[C@@](C)(O)c2nccs2)cc1-c1ccc2ccnc(N)c2c1 [Example 68, (R)-4-[3-(1-Amino-7-isoquinolyl)-4-methyl-phenyl]-2-thiazol-2-yl-but-3-yn-2-ol]	55 nM	> 5000 nM
